Measured values reported in article PMC9297976 (Journal of Applied Toxicology, 2021).

Tests used:
medaka ARβ (mArβ) [1] = biological target: T1, medaka ARβ (mArβ) (Oryzias latipes, UniProt D1MV73); assay: Medaka ARβ reporter gene assay, agonist assay; format: cell-based, Japanese medaka (Oryzias latipes); settings: MAC = 1.0 × 10^−4 M
T1 sequence (D1MV73 1-744): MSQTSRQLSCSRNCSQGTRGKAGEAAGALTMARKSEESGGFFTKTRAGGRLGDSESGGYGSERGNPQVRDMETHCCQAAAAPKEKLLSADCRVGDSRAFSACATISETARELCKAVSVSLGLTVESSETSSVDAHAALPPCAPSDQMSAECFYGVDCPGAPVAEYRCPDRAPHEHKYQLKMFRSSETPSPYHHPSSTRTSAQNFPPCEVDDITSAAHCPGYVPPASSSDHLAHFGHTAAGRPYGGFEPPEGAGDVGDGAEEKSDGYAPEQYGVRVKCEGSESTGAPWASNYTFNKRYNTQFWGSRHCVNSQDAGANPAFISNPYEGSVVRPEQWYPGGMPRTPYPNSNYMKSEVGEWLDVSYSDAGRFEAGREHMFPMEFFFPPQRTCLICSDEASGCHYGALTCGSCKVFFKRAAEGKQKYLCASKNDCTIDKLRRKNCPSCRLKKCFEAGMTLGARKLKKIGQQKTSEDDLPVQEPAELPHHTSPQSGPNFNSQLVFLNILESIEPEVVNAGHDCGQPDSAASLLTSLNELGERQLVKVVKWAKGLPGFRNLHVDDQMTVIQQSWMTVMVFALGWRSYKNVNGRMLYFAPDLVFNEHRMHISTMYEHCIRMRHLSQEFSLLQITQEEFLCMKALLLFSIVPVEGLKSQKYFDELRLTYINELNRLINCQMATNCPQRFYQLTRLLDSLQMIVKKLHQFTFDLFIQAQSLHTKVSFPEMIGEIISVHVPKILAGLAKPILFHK

[2] = test system: Japanese medaka (Oryzias latipes); assay: Fish Short‐Term Reproduction Assay; format: in vivo; settings: for GSI Female / GSI Male / HSI Female / HSI Male / Length Female / Length Male / Weight Female / Weight Male: completion of exposure
medaka Esr1 (mEsr1) [3] = biological target: T2, medaka Esr1 (mEsr1) (Oryzias latipes, UniProt P50241); assay: Medaka Esr1 reporter gene assay, antagonist assay; format: cell-based, Japanese medaka (Oryzias latipes); settings: E2 spiked at 1.0 nM (B); MAC = 1.0 × 10^−4 M
T2 sequence (P50241 1-620): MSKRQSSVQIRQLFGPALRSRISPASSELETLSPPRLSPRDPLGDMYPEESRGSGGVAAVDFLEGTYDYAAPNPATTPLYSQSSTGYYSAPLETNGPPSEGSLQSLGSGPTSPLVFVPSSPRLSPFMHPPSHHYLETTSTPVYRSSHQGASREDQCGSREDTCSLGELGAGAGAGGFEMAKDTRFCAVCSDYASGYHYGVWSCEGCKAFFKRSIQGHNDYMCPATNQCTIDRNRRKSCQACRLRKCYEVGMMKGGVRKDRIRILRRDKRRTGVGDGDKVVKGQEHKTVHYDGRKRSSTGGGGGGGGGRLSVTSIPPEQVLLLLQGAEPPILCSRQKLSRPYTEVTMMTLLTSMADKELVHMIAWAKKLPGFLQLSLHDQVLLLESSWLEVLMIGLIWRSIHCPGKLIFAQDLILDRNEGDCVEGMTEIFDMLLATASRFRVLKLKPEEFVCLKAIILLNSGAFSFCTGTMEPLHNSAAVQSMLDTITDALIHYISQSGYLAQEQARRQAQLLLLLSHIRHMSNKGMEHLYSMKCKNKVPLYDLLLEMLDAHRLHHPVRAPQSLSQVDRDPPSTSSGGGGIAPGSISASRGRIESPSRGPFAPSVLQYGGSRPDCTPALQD

medaka ARβ (mArβ) [4] = biological target: T1, medaka ARβ (mArβ); assay: Medaka ARβ reporter gene assay, antagonist assay; format: cell-based, Japanese medaka (Oryzias latipes); settings: 11‐KT spiked at 50 nM (D); MAC = 1.0 × 10^−4 M
medaka Esr1 (mEsr1) [5] = biological target: T2, medaka Esr1 (mEsr1); assay: cell-based; set-up: species or system Japanese medaka (Oryzias latipes)
[6] = 9.75 mg/L measured, 21 d, sig. ↓ vs control
[7] = measured concentration 0.357 mg/L
[8] = measured concentration 1.90 mg/L
[9] = measured concentration 9.75 mg/L

COC(=O)c1ccc(O)cc1 [MPB, 4‐Hydroxybenzoate methyl]
Agonistic activity (medaka ARβ (mArβ) [1]): NE (MAC = 1.0 × 10^−4 M) | Fertility rate ([2]; 0.357 mg/L measured, 21 d): 93 ± 2.9% | Hepatic VTG, female ([2]; 0.357 mg/L measured, 21 d): 3,450 ± 724 ng/mg‐liver | Hepatic VTG, male ([2]; 0.357 mg/L measured, 21 d): 1.7 ± 1.2 ng/mg‐liver | Mortality ([2]; 0.357 mg/L measured, 21 d): 0.0% | Mortality, number of dead fish ([2]; 0.357 mg/L measured, 21 d): 0 | Number of fertilized eggs (per female per day) ([2]; 0.357 mg/L measured, 21 d): 27 ± 3.5 | Number of total eggs (per female per day) ([2]; 0.357 mg/L measured, 21 d): 29 ± 3.3 | SSC female (joint plates with papillary processes) ([2]; 0.357 mg/L measured, 21 d): 0 ± 0 | Fertility rate ([2]; 1.90 mg/L measured, 21 d): 88 ± 7.7% | Hepatic VTG, female ([2]; 1.90 mg/L measured, 21 d): 3,890 ± 992 ng/mg‐liver | Mortality ([2]; 1.90 mg/L measured, 21 d): 0.0% | Mortality, number of dead fish ([2]; 1.90 mg/L measured, 21 d): 0 | Number of fertilized eggs (per female per day) ([2]; 1.90 mg/L measured, 21 d): 24 ± 3.0 | Number of total eggs (per female per day) ([2]; 1.90 mg/L measured, 21 d): 28 ± 3.3 | SSC female (joint plates with papillary processes) ([2]; 1.90 mg/L measured, 21 d): 0 ± 0 | SSC male (joint plates with papillary processes) ([2]; 1.90 mg/L measured, 21 d): 99 ± 12 | Hepatic VTG, male ([2]; 1.90 mg/L measured, 21 d, sig. ↑ vs control): 153 ± 113 ng/mg‐liver | Hepatic VTG, female ([2]; 9.75 mg/L measured, 21 d): 3,930 ± 963 ng/mg‐liver | Mortality ([2]; 9.75 mg/L measured, 21 d): 13% | Mortality, number of dead fish ([2]; 9.75 mg/L measured, 21 d): 3 | SSC female (joint plates with papillary processes) ([2]; 9.75 mg/L measured, 21 d): 0 ± 0 | SSC male (joint plates with papillary processes) ([2]; 9.75 mg/L measured, 21 d): 93 ± 15 | Hepatic VTG, male ([2]; 9.75 mg/L measured, 21 d, sig. ↑ vs control): 2,640 ± 1720 ng/mg‐liver | Fertility rate [2, 6]: 78 ± 4.8% | Number of fertilized eggs (per female per day) [2, 6]: 16 ± 2.3 | Number of total eggs (per female per day) [2, 6]: 20 ± 2.2 | Fecundity, number of total eggs (in words) ([2]; 21 d): statistically significant decrease | LOEC, elevated hepatic VTG in males ([2]; 21 d): 1.90 mg/L | Daily fecundity on the first day ([2]; Figure 3C): less than 10 eggs/female | LOECREPRO ([2]; LOEC on reproduction (fecundity and/or fertility)): 9,750 μg/L | minimal effective concentration ([2]; Oryzias latipes, 504 h, read-out: LOECmVTG): 1.9 µg/mL | LOECREPRO (reduction in fecundity or fertility) ([2]; concentrations without overt toxicity): 9,750 μg/L | LOECTOX ([2]; lowest observed effect concentration on mortality): ND (>9,750) μg/L | GSI Female [2, 7]: 11.0 ± 1.2% | GSI Male [2, 7]: 0.74 ± 0.18% | HSI Female [2, 7]: 4.4 ± 0.44% | HSI Male [2, 7]: 2.1 ± 0.16% | Length Female [2, 7]: 37.0 ± 1.3 mm | Length Male [2, 7]: 36.0 ± 0.5 mm | Weight Female [2, 7]: 589 ± 39 mg | Weight Male [2, 7]: 514 ± 28 mg | GSI Female [2, 8]: 11.0 ± 0.9% | GSI Male [2, 8]: 0.81 ± 0.06% | HSI Female [2, 8]: 4.7 ± 0.59% | HSI Male [2, 8]: 2.4 ± 0.21% | Length Female [2, 8]: 36.2 ± 1.2 mm | Length Male [2, 8]: 36.4 ± 1.3 mm | Weight Female [2, 8]: 574 ± 27 mg | Weight Male [2, 8]: 530 ± 47 mg | GSI Female [2, 9]: 9.8 ± 0.9% | GSI Male [2, 9]: 0.69 ± 0.15% | HSI Female [2, 9]: 5.4 ± 0.38% | HSI Male [2, 9]: 2.3 ± 0.60% | Length Female [2, 9]: 36.6 ± 1.4 mm | Length Male [2, 9]: 36.2 ± 1.1 mm | Weight Female [2, 9]: 603 ± 47 mg | Weight Male [2, 9]: 504 ± 62 mg | Antagonistic activity (medaka Esr1 (mEsr1) [3]): NE (MAC = 1.0 × 10^−4 M)^(B) | Antagonistic activity (medaka ARβ (mArβ) [4]): NE (MAC = 1.0 × 10^−4 M)^(D) | EC50 (medaka Esr1 (mEsr1) [5]): 70 µM | In vitro positive: Esr (medaka Esr1 (mEsr1) [5]; mode of action in which EC50 or PC10 was obtained in RGA): Esr
